Laboratory results reported in ChEMBL document CHEMBL1201862, “PubChem BioAssay data set” (2004).
Activity calls are given as the source filed them.

What was measured:
HeLa = assay: ATP-based viability loss in HeLa cells – cell-based, CellTiter-Glo luminescence, cherry-pick samples, cytotoxicity control for MITF activator project, dose response (AID 540259); type: functional; conditions: Homo sapiens
[1] = microbe, parasite or virus in culture; type: functional; conditions: Mycobacterium tuberculosis
CHO = CHO cell viability loss, potency – luminescence, cytotoxicity control for TLR9-MyD88 binding inhibitor project, dose response (AID 588339); type: functional, cell-based, hamster; conditions: Cricetulus griseus;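 also: CHO cells stably coexpressing TLR9 and MyD88 fusions from primary screen; compound exposure lasted 48 hours before viability readout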
[2] = target: Heat shock protein HSP 90-alpha (Homo sapiens, UniProt P07900); type: functional, organism-based
INS1 = assay: INS-1E survival protection against cytokine death – cell-based, luminescence, retest, dose response (AID 449756); type: functional; conditions: Rattus norvegicus;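 also: cell death triggered by IL-1 beta plus TNF-alpha plus IFN-gamma mixture; protective hits raise ATP signal compared with cytokine alone wells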
[3] = reduction of Shn3 3'UTR-driven luciferase in osteoblasts – cell-based, Clone20 osteoblasts, firefly luciferase, cherry-picked, dose response (AID 624132); type: functional;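 also: firefly luciferase luminescence from reporter carrying the Shn3 3'UTR in osteoblasts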
[4] = loss of viability in HepG2 cells – cell-based, CellTiter-Glo, cherry-picked, cytotoxicity control for Shn3 inhibitor project, dose response (AID 624134); type: functional
[5] = non-specific 3'UTR reporter inhibition in Clone20-Shn3RL – cell-based, Renilla luciferase, cherry-picked, counter-screen for Shn3 inhibitor project, dose response (AID 624133); type: functional
[6] = target: Voltage-gated inwardly rectifying potassium channel KCNH2 (Homo sapiens, UniProt Q12809); conditions: Potency;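 also: confirmatory quantitative high-throughput screen measuring inhibition of hERG channel activity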
[7] = target: T1, Mannose-6-phosphate isomerase (Homo sapiens, UniProt P34949); assay: phosphomannose isomerase inhibition – biochemical, fluorescence intensity, confirmation (AID 1535)
T1 sequence (P34949 whole entry): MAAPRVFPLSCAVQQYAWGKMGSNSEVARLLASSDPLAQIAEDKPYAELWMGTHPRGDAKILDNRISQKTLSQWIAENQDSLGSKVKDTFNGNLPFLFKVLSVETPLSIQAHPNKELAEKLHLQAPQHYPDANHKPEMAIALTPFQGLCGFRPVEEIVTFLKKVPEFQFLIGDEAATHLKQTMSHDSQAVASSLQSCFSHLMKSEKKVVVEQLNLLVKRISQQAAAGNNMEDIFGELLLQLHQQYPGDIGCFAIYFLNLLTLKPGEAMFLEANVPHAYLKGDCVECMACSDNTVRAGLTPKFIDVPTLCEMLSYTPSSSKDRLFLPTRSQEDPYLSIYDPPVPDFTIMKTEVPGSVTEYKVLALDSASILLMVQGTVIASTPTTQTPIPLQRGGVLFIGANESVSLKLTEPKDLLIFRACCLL

Phosphomannomutase 2 = target: T2, Phosphomannomutase 2 (Homo sapiens, UniProt O15305); assay: Counter screen SAR assay for PMM2 inhibitors via a fluorescence intensity assay. [Related pubchem assays (depositor defined):AID1545, AID1574]
T2 sequence (O15305 whole entry): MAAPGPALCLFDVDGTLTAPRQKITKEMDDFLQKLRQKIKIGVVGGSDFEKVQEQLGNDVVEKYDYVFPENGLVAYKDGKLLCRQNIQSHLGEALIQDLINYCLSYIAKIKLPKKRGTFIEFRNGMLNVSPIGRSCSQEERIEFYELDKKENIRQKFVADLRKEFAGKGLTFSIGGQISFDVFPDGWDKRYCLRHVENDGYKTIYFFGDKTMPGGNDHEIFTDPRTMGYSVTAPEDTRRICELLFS

[8] = target: T1, Mannose-6-phosphate isomerase; assay: MPI inhibition at elevated mannose 6-phosphate – biochemical, fluorescence intensity, high mannose 6-phosphate, primary screen (AID 1220)
[9] = target: Eukaryotic translation initiation factor 4E (Mus musculus, UniProt P63073); assay: blockers of eIF4G binding by eIF4E – biochemical, TR-FRET, dose response (AID 855); type: functional;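 also: potency for disrupting eIF4E binding to eIF4GI seen as loss of FRET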
[10] = target: Dual specificity protein phosphatase 3 (Homo sapiens, UniProt P51452); assay: SAR VHR1 Fluorescent Assay for In Vitro dose response studies Set 2. [Related pubchem assays (depositor defined):AID1654, AID1661, AID1878]; type: functional
[11] = target: T3, Dual specificity protein phosphatase 6 (Rattus norvegicus, UniProt Q64346); type: functional;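 also: confirmatory in vitro dose-response testing of MKP-3 inhibition; recombinant His-tagged MKP-3 made in E. coli BL21 with OMFP substrate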
T3 sequence (Q64346 whole entry): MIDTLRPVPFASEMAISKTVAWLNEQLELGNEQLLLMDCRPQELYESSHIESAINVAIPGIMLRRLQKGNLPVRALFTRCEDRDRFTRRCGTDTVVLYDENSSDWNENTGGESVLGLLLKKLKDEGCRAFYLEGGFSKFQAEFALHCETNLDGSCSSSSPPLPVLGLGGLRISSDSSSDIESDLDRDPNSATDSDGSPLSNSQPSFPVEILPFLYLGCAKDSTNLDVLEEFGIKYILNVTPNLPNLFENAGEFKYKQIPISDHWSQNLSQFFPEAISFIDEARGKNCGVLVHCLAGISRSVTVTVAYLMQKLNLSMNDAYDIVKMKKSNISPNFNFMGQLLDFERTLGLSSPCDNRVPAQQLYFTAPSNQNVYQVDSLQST

Hexokinase-1 = target: T4, Hexokinase-1 (Homo sapiens, UniProt P19367); assay: SAR analysis of small molecule inhibitors of hexokinase domain containing I (HKDC1) in the hexokinase 1 selectivity assay. [Related pubchem assays (depositor defined):AID493160, AID493190]; type: functional
T4 sequence (P19367 whole entry): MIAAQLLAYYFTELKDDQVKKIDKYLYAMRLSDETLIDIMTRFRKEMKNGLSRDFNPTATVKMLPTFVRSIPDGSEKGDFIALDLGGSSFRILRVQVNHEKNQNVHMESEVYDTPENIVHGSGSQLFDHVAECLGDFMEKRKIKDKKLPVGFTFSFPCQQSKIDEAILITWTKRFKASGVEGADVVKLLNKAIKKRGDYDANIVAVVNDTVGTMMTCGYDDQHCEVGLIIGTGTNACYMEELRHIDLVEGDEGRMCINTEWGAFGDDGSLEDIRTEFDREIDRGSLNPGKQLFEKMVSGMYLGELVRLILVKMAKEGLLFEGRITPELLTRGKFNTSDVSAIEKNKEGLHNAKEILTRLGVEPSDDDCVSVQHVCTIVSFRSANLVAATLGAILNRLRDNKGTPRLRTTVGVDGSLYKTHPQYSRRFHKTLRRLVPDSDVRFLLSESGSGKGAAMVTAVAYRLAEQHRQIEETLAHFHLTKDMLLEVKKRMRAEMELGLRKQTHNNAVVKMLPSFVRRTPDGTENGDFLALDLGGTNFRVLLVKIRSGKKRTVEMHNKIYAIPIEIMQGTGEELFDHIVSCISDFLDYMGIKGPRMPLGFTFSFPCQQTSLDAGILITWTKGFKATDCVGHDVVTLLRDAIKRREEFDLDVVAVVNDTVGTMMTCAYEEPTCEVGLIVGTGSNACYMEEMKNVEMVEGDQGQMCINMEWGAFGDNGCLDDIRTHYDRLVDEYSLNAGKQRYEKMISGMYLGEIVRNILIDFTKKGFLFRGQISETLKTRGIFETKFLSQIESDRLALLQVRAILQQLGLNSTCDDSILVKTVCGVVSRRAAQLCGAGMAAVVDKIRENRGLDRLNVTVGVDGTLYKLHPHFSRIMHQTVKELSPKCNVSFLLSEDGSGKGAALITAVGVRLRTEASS

Hexokinase HKDC1 = target: T5, Hexokinase HKDC1 (Homo sapiens, UniProt Q2TB90); assay: SAR analysis of small molecule inhibitors of hexokinase domain containing I (HKDC1). [Related pubchem assays (depositor defined):AID493160, AID493190]; type: functional
T5 sequence (Q2TB90 whole entry): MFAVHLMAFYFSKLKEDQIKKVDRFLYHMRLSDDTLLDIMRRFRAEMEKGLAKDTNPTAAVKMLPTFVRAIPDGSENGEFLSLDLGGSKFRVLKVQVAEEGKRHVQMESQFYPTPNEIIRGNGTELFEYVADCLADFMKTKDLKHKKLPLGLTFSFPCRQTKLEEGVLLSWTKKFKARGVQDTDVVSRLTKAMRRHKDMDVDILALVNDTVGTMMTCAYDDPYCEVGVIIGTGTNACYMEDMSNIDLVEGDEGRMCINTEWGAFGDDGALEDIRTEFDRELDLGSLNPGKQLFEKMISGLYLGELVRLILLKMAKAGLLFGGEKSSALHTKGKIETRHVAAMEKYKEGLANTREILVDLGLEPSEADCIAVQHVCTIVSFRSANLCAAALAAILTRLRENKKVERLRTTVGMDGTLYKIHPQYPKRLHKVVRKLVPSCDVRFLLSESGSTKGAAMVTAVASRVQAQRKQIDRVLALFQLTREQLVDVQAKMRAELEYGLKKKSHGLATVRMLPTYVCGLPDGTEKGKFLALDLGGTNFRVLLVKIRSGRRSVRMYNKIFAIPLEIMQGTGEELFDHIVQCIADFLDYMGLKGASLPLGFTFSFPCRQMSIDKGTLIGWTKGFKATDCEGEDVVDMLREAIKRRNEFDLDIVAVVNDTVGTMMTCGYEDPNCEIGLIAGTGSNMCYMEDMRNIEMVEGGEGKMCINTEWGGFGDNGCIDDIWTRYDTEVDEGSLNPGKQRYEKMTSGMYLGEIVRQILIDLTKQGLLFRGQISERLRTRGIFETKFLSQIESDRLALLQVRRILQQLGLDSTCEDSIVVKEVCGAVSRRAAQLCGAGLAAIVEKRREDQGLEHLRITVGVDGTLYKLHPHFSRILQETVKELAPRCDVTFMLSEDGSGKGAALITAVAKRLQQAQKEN

Candida albicans [12] = assay: fluconazole-resistant Candida strain growth inhibitors – CaCi-8 strain, dry powder, set 4, dose response (AID 488950); type: functional, organism-based
Candida albicans [13] = assay: C. albicans growth inhibition with fluconazole – CaCi-2 strain, Alamar Blue, dry powder, set 4, dose response (AID 488943); type: functional, organism-based
Candida albicans [14] = assay: resistant Candida growth with fluconazole co-treatment – CaCi-8 strain, Alamar Blue, dry powder, set 2, dose response (AID 488909); type: functional, organism-based

Voltage-gated inwardly rectifying potassium channel KCNH2, sequence (Q12809 whole entry): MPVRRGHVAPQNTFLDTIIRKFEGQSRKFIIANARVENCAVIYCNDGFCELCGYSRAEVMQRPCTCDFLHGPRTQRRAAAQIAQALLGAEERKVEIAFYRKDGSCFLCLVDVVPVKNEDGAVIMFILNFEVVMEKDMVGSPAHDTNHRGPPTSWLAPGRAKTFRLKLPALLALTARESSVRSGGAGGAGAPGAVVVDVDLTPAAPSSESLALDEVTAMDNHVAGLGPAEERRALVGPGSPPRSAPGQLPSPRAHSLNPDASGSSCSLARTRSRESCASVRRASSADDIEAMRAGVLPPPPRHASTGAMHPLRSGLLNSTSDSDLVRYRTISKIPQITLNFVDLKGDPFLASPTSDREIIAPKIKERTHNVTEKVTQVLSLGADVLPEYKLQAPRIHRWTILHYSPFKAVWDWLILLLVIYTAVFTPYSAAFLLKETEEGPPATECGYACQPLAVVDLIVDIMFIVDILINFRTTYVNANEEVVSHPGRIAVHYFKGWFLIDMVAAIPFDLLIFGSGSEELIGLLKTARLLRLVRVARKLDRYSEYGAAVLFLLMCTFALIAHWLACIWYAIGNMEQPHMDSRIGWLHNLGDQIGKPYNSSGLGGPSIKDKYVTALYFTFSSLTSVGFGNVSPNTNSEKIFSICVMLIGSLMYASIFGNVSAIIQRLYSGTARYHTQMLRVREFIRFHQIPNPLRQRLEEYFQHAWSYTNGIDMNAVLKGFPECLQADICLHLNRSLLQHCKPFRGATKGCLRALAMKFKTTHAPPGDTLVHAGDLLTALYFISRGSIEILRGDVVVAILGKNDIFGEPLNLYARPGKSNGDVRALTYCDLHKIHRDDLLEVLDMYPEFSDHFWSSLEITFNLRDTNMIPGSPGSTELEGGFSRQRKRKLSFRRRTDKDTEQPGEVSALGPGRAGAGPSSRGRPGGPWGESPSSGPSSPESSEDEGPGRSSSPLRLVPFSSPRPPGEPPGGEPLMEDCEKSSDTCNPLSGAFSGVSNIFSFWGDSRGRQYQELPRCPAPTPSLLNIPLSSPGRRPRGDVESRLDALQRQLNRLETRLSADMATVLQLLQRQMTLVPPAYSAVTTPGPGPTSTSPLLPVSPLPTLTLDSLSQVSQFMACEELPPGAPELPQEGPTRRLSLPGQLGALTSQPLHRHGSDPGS
Dual specificity protein phosphatase 3, sequence (P51452 whole entry): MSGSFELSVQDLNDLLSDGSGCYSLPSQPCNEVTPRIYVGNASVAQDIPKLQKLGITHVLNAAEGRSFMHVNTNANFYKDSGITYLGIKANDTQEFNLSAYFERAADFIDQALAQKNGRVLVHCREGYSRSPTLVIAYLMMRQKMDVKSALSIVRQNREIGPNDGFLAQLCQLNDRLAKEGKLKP
Eukaryotic translation initiation factor 4E, sequence (P63073 whole entry): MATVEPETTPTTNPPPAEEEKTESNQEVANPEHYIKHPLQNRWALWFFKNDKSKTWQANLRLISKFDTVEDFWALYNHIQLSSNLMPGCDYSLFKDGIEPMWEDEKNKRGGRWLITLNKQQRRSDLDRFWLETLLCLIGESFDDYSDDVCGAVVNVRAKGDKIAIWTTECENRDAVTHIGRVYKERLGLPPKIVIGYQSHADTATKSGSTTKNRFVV

Compound: COc1nc(C)ccc1-c1noc(-c2ccncc2)n1
- AC50 (HeLa): 40 µM (active)

Compound: N=C(NOC(=O)C12CC3CC(CC(C3)C1)C2)c1ccccn1
- AC50 (HeLa): 27.5 µM (active)

Compound: Cc1ccc(-n2c(Cl)c(Cl)nc(Cl)c2=O)cc1
- CC50 [1]: 39.1 µM (active)
- IC50 (CHO): 1.39 µM (active)
- AC50 [2]: 1.38 µM (active)
- AC50 (INS1): 4.43 µM (active)
- AC50 [3]: 1.77 µM (active)
- AC50 [4]: 8.89 µM (active)
- AC50 [5]: 3.58 µM (active)

Compound: Cc1ccccc1C(N)=O
- AC50 [6]: 35.5 µM (inconclusive)

Compound: Cc1nn(-c2ccccc2)c(S)c1C=Nc1cccc([N+](=O)[O-])c1
- IC50 [7]: 31.1 µM (active)
- IC50 (Phosphomannomutase 2): > 100 µM (inactive)

Compound: Clc1ccc(/N=c2\ssnc2Cl)cc1
- IC50 [8]: > 50 µM (not active)
- IC50 [7]: 12.5 µM (active)
- IC50 (Phosphomannomutase 2): > 100 µM (inactive)
- IC50 [9]: 28.2 µM (active)
- AC50 [2]: 8.4 µM (active)

Compound: NS(=O)(=O)c1cc(C(=O)NC2CCOc3ccccc32)ccc1Cl (stereo not given)
- IC50 [10]: > 100 µM (inactive)
- IC50 [11]: > 100 µM (inactive)

Compound: O=c1c2ccccc2nc(/C=C/c2cccnc2)n1Cc1cccc(Cl)c1
- IC50 (Hexokinase-1): > 80 µM (inactive)
- IC50 (Hexokinase HKDC1): > 80 µM (inactive)

Compound: Cc1cc(N2CCN(C(=O)c3ccc(Cl)cc3)CC2)c2ccc(F)cc2n1
- AC50 (Candida albicans [12]): 14.4 µM (active)
- AC50 (Candida albicans [13]): 15.8 µM (active)
- AC50 (Candida albicans [14]): 49.3 µM (active)

Compound: Cc1ccccc1N1C(=O)c2cc(S(N)(=O)=O)c(Cl)cc2NC1C (stereo not given) [METOLAZONE]
- AC50 [6]: 0.112 µM (inconclusive)
